Measurements reported in patent US20220016146A1, “METHOD OF TREATING AGE-RELATED MACULAR DEGENERATION” (ZHUHAI QiWEl BIO-TECHNOLOGY LTD., priority 2018, published 2022).

Tests used:
Bacillus megaterium [1] = test: Antibiotic sensitivity testing in petri dishes (MIC method); type: cell-based; settings: FIG. 1; for sensitivity of Bacillus megaterium to antimicrobial agent / control of growth in vitro: 1*10^7 bacteria per culture, 37° C., 24 h
Experimental: The bacterial culture medium (HuanKai Microbial, Guangzhou, China) containing peptone 5 g, beef extract 3 g, NaCl 5 g, agar 15 g, and MnSO4 5 mg in 1 L ddH2O (pH=7.2) was prepared in conical flask (Drtech, Guangzhou, China) and was sterilized in the autoclave (HIRAYAMA, HEV-50, Japan) at 121° C. for 30 min. Antibiotics (ampicillin, vancomycin, neomycin, metronidazole, and tetracycline, purchased from Sigma, USA) at various concentrations were added into cooled medium. Bacillus megaterium (total 1*10^7 per culture) was cultured in the incubator (HettCube 200, Germany) at 37° C. for 24 h.
To test whether antibiotics can control the growth of Bacillus megaterium in vitro and in vivo, an antibiotic sensitivity screening test in petri dishes was carried out. The sensitivity of Bacillus megaterium to several major antimicrobial agents including Ampicillin, vancomycin, neomycin, metronidazole, and tetracycline were examined using the minimum inhibitory concentration (MIC) method.

Bacillus megaterium [2] = type: in vivo, monkey
Experimental: The inventors collected both AH and vitreous humor (VH) specimens from AMD patients and were able to detect B. megaterium DNA in both uncultured and cultured samples. The inventors further examined whether subretinal inoculation of AH and VH cultures which had B. megaterium, as well as the cultured single species of B. megaterium led to AMD like pathology in macaque. Briefly, about 20 CFU of bacteria (in 20 μl PBS) from AH, VH, and B. megaterium cultures were injected subretinally and PBS was used as a control. The fundus examination of macaque eye was performed before (Day 0) and after bacterial inoculation on Day 1, Day 3, Day 35 as well as Day 47. The PBS injection left only visible scar on the retina, while all bacterial inoculations led to drusenoid lesions on retinal tissues. Drusen-like nodules were also visible under the RPE layer. Fluorescence in situ hybridization results also located B. megaterium in drusenoid but not in the normal tissues post inoculation. An elevation in the expression of C5A, CFH, CASPASE1, and NLRP3 proteins was also detected in the B. megaterium infected drusenoid lesion and para-lesion tissues as compared to the uninfected normal retina in macaque.
Next, Bacillus megaterium subretinal inoculation model was used to test whether antibiotics might be able to change the bacteria-induced drusenoid pathology in monkey retinal tissues.

Molecule | fold less effective in controlling the growth of Bacillus megaterium (Bacillus megaterium [1]; compared with neomycin) | sensitivity of Bacillus megaterium to antimicrobial agent / control of growth in vitro (Bacillus megaterium [1]) | size of drusenoid lesion in retinal tissue (Bacillus megaterium [2]; intravitreous 0.5 mg, one injection on Day 2 post bacterial inoculation, monkey, FIG. 2) | ocular complications after intraocular administration (Bacillus megaterium [2]; intraocular administration in monkey (data not shown))
Cc1ncc([N+](=O)[O-])n1CCO [metronidazole] | 10000 fold |  |  | 
CN[C@H](CC(C)C)C(=O)N[C@H]1C(=O)N[C@@H](CC(N)=O)C(=O)N[C@H]2C(=O)N[C@H]3C(=O)N[C@H](C(=O)N[C@H](C(=O)O)c4cc(O)cc(O)c4-c4cc3ccc4O)[C@H](O)c3ccc(c(Cl)c3)Oc3cc2cc(c3O[C@@H]2O[C@H](CO)[C@@H](O)[C@H](O)[C@H]2O[C@H]2C[C@](C)(N)[C@H](O)[C@H](C)O2)Oc2ccc(cc2Cl)[C@H]1O [vancomycin] |  | able to inhibit the growth | reduction in the size of drusenoid lesion | 
neomycin |  | most sensitive |  | significant ocular complications including ophthalmatrophia
